Source: patent US20140187548A1, “6 SUBSTITUTED IMIDAZOPYRAZINES FOR USE AS MPS-1 AND TKK INHIBITORS IN THE TREATMENT OF HYPERPROLIFERATIVE DISORDERS” (BAYER INTELLECTUAL PROPERTY GMBH, priority 2010, published 2014)

Biological target: T1, human kinase Mps-1 (Homo sapiens, UniProt P33981)
T1 construct: N-terminally GST-tagged human full length recombinant Mps-1 kinase; GST (N); purchased Invitrogen, Karslruhe, Germany PV4071
T1 sequence (P33981 1-857): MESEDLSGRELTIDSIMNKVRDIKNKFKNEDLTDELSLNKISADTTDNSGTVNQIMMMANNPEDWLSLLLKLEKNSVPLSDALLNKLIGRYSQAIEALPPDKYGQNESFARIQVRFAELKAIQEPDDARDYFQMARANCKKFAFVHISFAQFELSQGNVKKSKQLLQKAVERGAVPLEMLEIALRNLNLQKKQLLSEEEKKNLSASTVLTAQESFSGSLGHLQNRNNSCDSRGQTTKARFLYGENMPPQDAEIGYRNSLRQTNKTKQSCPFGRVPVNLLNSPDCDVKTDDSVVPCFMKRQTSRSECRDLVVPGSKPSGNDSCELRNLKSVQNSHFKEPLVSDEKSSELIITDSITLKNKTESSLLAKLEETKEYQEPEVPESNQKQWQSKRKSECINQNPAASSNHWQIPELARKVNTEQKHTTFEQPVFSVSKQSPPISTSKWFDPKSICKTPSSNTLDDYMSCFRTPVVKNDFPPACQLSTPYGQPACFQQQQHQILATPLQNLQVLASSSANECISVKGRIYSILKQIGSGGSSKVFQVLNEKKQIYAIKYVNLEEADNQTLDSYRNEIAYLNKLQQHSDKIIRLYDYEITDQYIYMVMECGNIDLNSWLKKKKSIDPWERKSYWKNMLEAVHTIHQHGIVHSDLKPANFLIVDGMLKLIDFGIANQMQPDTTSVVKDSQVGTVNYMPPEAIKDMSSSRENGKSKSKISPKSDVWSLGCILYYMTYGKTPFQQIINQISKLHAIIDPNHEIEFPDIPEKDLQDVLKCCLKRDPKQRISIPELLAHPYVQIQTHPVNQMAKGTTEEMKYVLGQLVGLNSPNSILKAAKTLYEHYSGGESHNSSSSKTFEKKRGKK
Assay: Mps-1 kinase assay (TR-FRET)
Type: biochemical
Details: N-terminally GST-tagged human full length recombinant Mps-1; 10 μM ATP; 1 μM peptide substrate; 15 min pre-incubation; 60 min at 22° C.
Procedure, shortened: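 N-terminally GST-tagged full-length recombinant human Mps-1, about 1 nM final, phosphorylates a biotinylated peptide. Product detected by TR-FRET from Eu-anti-phospho-Ser/Thr antibody to streptavidin-XLent after 1 h at 22° C.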

**Q.** For CC(C)CNc1nc(-c2ccc(C(=O)NC3CC3)c(Cl)c2)cn2c(-c3ccc(C(=O)NC4CC4)cc3)cnc12 [Example 1-83, 2-chloro-N-cyclopropyl-4-{3-[4-(cyclopropyl-carbamoyl)phenyl]-8-[(2-methylpropyl)amino]imidazo[1,2-a]pyrazin-6-yl}benzamide], which IC50 is on record?
**A.** Its IC50 is 6.9 nM.

**Q.** O=C(NC1CC1)c1ccc(-c2cnc3c(NCCc4ccccc4)nc(-c4ccccc4)cn23)cc1 [Example 2-7, N-cyclopropyl-4-{6-phenyl-8-[(2-phenylethyl)amino]imidazo[1,2-a]pyrazin-3-yl} benzamide] was tested. Which IC50 did it give?
**A.** The IC50 was 25 nM.

**Q.** COc1cccc(-c2cn3c(-c4ccc(C(=O)NC5CC5)cc4)cnc3c(NCC(C)C)n2)c1F [Example 1-13, N-cyclopropyl-4-{6-(2-fluoro-3-methoxyphenyl)-8-[(2-methylpropyl)amino]imidazo[1,2-a]pyrazin-3-yl}benzamide] was tested. Which IC50 did it give?
**A.** Its IC50 is 7 nM.

**Q.** With CC(C)CNc1nc(-c2ccc3c(c2)OCCO3)cn2c(-c3ccc(C(=O)NC4CC4)cc3)cnc12 [Example 1-3, N-cyclopropyl-4-{6-(2,3-dihydro-1,4-benzodioxin-6-yl)-8-[(2-methyl-propyl)amino]imidazo [1,2-a]pyrazin-3-yl} benzamide] as the molecule, how does the IC50 read?
**A.** The IC50 was 18.4 nM.

**Q.** Which IC50 does the source give for O=C(NC1CC1)c1ccc(-c2cnc3c(NCc4ccc5c(c4)OCO5)nc(-c4ccccc4)cn23)cc1 [Example 2-32, 4-{8-[(1,3-benzodioxol-5-ylmethyl)amino]-6-phenylimidazo[1,2-a]pyrazin-3-yl}-N-cyclopropyl-benzamide] here?
**A.** The IC50 was 5.8 nM.

**Q.** How did the IC50 turn out when NS(=O)(=O)c1ccc(CNc2nc(-c3ccccc3)cn3c(-c4ccc(C(=O)NC5CC5)cc4)cnc23)cc1 [Example 2-26, N-cyclopropyl-4-{6-phenyl-8-[(4-sulfamoylbenzyl)amino]imidazo[1,2-a]pyrazin-3-yl}benzamide] was run?
**A.** Its IC50 is 5.6 nM.

**Q.** How did the IC50 turn out when COc1ccccc1-c1cn2c(-c3ccc(C(=O)NC4CC4)cc3)cnc2c(NCC(C)C)n1 [Example 1-41, N-cyclopropyl-4-{6-(2-methoxyphenyl)-8-[(2-methylpropyl)amino]imidazo[1,2-a]pyrazin-3-yl}benzamide] was run?
**A.** Its IC50 is 7.4 nM.

**Q.** For O=C(NC1CC1)c1ccc(-c2cnc3c(NCCc4cccs4)nc(-c4ccccc4)cn23)cc1 [Example 2-39, N-cyclopropyl-4-(6-phenyl-8-{[2-(thiophen-2-yl)ethyl]amino}imidazo[1,2-a]pyrazin-3-yl)benzamide], which IC50 is on record?
**A.** The IC50 was 19.4 nM.

**Q.** For Cc1cc(-c2cnc3c(NCCC(F)(F)F)nc(-c4cccc(CO)c4)cn23)ccc1C(=O)NC1CC1 [Example 1-122, N-cyclopropyl-4-{6-[3-(hydroxymethyl)phenyl]-8-[(3,3,3-trifluoropropyl)amino]imidazo[1,2-a]pyrazin-3-yl}-2-methyl-benzamide], which IC50 is on record?
**A.** Its IC50 is 11.9 nM.

**Q.** Which IC50 does the source give for CN(C)c1ccc(-c2cn3c(-c4ccc(C(=O)NC5CC5)c(F)c4)cnc3c(NCc3ccnn3C)n2)cc1 [Example 1-120, N-cyclopropyl-4-(6-[4-(dimethylamino)phenyl]-8-{[(1-methyl-1H-pyrazol-5-yl)methyl]amino}imidazo[1,2-a]pyrazin-3-yl)-2-fluorobenzamide] here?
**A.** The IC50 was 16.8 nM.

**Q.** How did the IC50 turn out when CC(C)CNc1nc(-c2cccc([N+](=O)[O-])c2)cn2c(-c3ccc(C(=O)NC4CC4)cc3)cnc12 [Example 1-2, N-cyclopropyl-4-{8-[(2-methylpropyl)amino]-6-(3-nitrophenyl)imidazo [1,2-a]pyrazin-3-yl} benzamide] was run?
**A.** Its IC50 is 5.5 nM.

**Q.** Which IC50 does the source give for CCN(CC)CCCCNc1nc(-c2ccccc2)cn2c(-c3ccc(C(=O)NC4CC4)cc3)cnc12 [Example 2-37, N-cyclopropyl-4-(8-{[4-(diethylamino)butyl]amino}-6-phenylimidazo[1,2-a]pyrazin-3-yl)benzamide] here?
**A.** Its IC50 is 14.1 nM.

**Q.** For CC(C)CNc1nc(-c2ccccc2CO)cn2c(-c3ccc(C(=O)NC4CC4)c(Cl)c3)cnc12 [Example 1-95, 2-chloro-N-cyclopropyl-4-{6-[2-(hydroxymethyl)phenyl]-8-[(2-methyl-propyl)amino]imidazo [1,2-a]pyrazin-3-yl} benzamide], which IC50 is on record?
**A.** Its IC50 is 5.3 nM.

**Q.** For O=C(NC1CC1)c1ccc(-c2cnc3c(NCCCOC[C@@H](O)CO)nc(-c4ccccc4)cn23)cc1 [Example 9-1, N-cyclopropyl-4-{8-[(3-{[(2S)-2,3-dihydroxypropyl]oxy}propyl)amino]-6-phenylimidazo[1,2-a]pyrazin-3-yl}benzamide], which IC50 is on record?
**A.** Its IC50 is 3.4 nM.

**Q.** CC(C)CNc1nc(-c2ccc(N3CCN(C)CC3)cc2)cn2c(-c3ccc(C(=O)NC4CC4)cc3)cnc12 [Example 1-90, N-cyclopropyl-4-{6-[4-(4-methylpiperazin-1-yl)phenyl]-8-[(2-methyl-propyl)amino]imidazo [1,2-a]pyrazin-3-yl} benzamide] was tested. Which IC50 did it give?
**A.** The IC50 was 1.6 nM.

**Q.** With O=C(NC1CC1)c1ccc(-c2cnc3c(NCc4ccco4)nc(-c4ccccc4)cn23)cc1 [Example 2-75, N-cyclopropyl-4-{8-[(2-furylmethyl)amino]-6-phenylimidazo[1,2-a]pyrazin-3-yl}benzamide] as the molecule, how does the IC50 read?
**A.** Its IC50 is 3.2 nM.

**Q.** For Cc1cc(-c2cn3c(-c4ccc(C(=O)NC5CC5)cc4)cnc3c(NCC(C)(C)O)n2)ccc1F [Example 1-135, N-cyclopropyl-4-{6-(4-fluoro-3-methylphenyl)-8-[(2-hydroxy-2-methylpropyl)amino]imidazo [1,2-a]pyrazin-3-yl} benzamide], which IC50 is on record?
**A.** The IC50 was 8.4 nM.

**Q.** With COC(=O)CCNc1nc(-c2ccccc2)cn2c(-c3ccc(C(=O)NC4CC4)cc3)cnc12 [Example 2-33, methyl N-{3-[4-(cyclopropylcarbamoyl)phenyl]-6-phenylimidazo[1,2-a]pyrazin-8-yl}-beta-alaninate] as the molecule, how does the IC50 read?
**A.** The IC50 was 2.3 nM.

**Q.** How did the IC50 turn out when CC(C)CNc1nc(-c2ccc(C(N)=O)cc2)cn2c(-c3ccc(C(=O)NC4CC4)cc3)cnc12 [Example 1-24, 4-{6-(4-carbamoylphenyl)-8-[(2-methylpropyl)amino]imidazo[1,2-a]pyrazin-3-yl}-N-cyclo-propylbenzamide] was run?
**A.** The IC50 was 1.1 nM.

**Q.** With CC(C)CNc1nc(-c2cccc(C(F)(F)F)c2)cn2c(-c3ccc(C(=O)NC4CC4)cc3)cnc12 [Example 1-35, N-cyclopropyl-4-{8-[(2-methylpropyl)amino]-6-[3-(trifluoromethyl)phenyl]imidazo[1,2-a]pyrazin-3-yl}benzamide] as the molecule, how does the IC50 read?
**A.** Its IC50 is 49.3 nM.

**Q.** CC(C)CNc1nc(-c2ccc(O)cc2)cn2c(-c3ccc(C(=O)NC4CC4)cc3)cnc12 [Example 1-67, N-cyclopropyl-4-{6-(4-hydroxyphenyl)-8-[(2-methylpropyl)amino]imidazo[1,2-a]pyrazin-3-yl}benzamide] was tested. Which IC50 did it give?
**A.** Its IC50 is 3.5 nM.

**Q.** CC(C)CNc1nc(-c2ccc(F)cc2)cn2c(-c3ccc(C(=O)NC4CC4)c(Cl)c3)cnc12 [Example 1-93, 2-chloro-N-cyclopropyl-4-{6-(4-fluorophenyl)-8-[(2-methylpropyl)amino]imidazo[1,2-a]pyrazin-3-yl}benzamide] was tested. Which IC50 did it give?
**A.** The IC50 was 18 nM.

**Q.** For O=C(NC1CC1)c1ccc(-c2cnc3c(NCc4sccc4Cl)nc(-c4ccccc4)cn23)cc1 [Example 2-59, 4-(8-{[(3-chlorothiophen-2-yl)methyl]amino}-6-phenylimidazo [1,2-a]pyrazin-3-yl)-N-cyclopropylbenzamide], which IC50 is on record?
**A.** The IC50 was 6.4 nM.

**Q.** O=C(NC1CC1)c1ccc(-c2cnc3c(NCCCCN4CCCC4)nc(-c4ccccc4)cn23)cc1 [Example 2-45, N-cyclopropyl-4-(6-phenyl-8-{[4-(pyrrolidin-1-yl)butyl]amino}imidazo[1,2-a]pyrazin-3-yl) benzamide] was tested. Which IC50 did it give?
**A.** The IC50 was 11.2 nM.

**Q.** For CC(C)CNc1nc(-c2ccc(F)c(C(=O)NC(C)C)c2)cn2c(-c3ccc(C(=O)NC4CC4)cc3)cnc12 [Example 1-85, 5-{3-[4-(cyclopropyl-carbamoyl)phenyl]-8-[(2-methylpropyl)amino]imidazo[1,2-a]pyrazin-6-yl}-2-fluoro-N-(propan-2-yl)benzamide], which IC50 is on record?
**A.** Its IC50 is 2.6 nM.

**Q.** With O=C(NC1CC1)c1ccc(-c2cnc3c(NCCc4cccnc4)nc(-c4ccccc4)cn23)cc1 [Example 2-50, N-cyclopropyl-4-(6-phenyl-8-{[2-(pyridin-3-yl)ethyl]amino}imidazo[1,2-a]pyrazin-3-yl) benzamide] as the molecule, how does the IC50 read?
**A.** The IC50 was 8 nM.

**Q.** Which IC50 does the source give for CCN(CC)CCCNc1nc(-c2ccccc2)cn2c(-c3ccc(C(=O)NC4CC4)cc3)cnc12 [Example 2-29, N-cyclopropyl-4-(8-{[3-(diethylamino)propyl]amino}-6-phenylimidazo[1,2-a]pyrazin-3-yl)benzamide] here?
**A.** Its IC50 is 14.8 nM.

**Q.** For CC(C)CNc1nc(-c2ccc(S(=O)(=O)NC3CC3)cc2)cn2c(-c3ccc(C(=O)NC4CC4)cc3)cnc12 [Example 1-126, N-cyclopropyl-4-{6-[4-(cyclopropylsulfamoyl)phenyl]-8-[(2-methylpropyl)amino]imidazo[1,2-a]pyrazin-3-yl}benzamide], which IC50 is on record?
**A.** Its IC50 is 4.4 nM.
